{"source": "patent US20220324865A1", "about": "(Bayer Aktiengesellschaft, priority 2018, published 2022)", "note": "Counter-ions that a name gives are not always drawn.", "data": [{"target": "T1, human EP3 receptor (Homo sapiens, UniProt P43115)", "T1 construct": "expressed in transfected cells; host or cells: CHO K1 (Chinese Hamster Ovary), stably co-transfected with Galpha16 and mitochondrial clytin", "T1 sequence (P43115 1-390)": "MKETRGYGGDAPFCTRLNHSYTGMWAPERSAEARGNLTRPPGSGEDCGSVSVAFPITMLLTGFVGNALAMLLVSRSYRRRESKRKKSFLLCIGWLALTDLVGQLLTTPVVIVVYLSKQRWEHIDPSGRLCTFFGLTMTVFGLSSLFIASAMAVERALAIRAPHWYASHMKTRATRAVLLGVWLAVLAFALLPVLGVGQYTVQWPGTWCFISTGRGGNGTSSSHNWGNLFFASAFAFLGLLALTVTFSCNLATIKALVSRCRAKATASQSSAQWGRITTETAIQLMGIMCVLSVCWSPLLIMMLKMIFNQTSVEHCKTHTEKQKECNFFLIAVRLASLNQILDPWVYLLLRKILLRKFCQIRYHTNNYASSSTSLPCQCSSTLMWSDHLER", "experiment": "Cellular in vitro assay for determining EP3 receptor activity (human EP3 cell line, sulprostone-stimulated calcium luminescence)", "type": "cell-based", "conditions": "CHO cells expressing human EP3 and mitochondrial Clytin; antagonist mode, sulprostone at EC50; read-out: EP3 CHO mtCLY ANTAG IC50", "outline": "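Antagonist activity was measured as inhibition of the luminescent calcium signal elicited by EC50 sulprostone, following 10 min compound pretreatment. The cell line was recombinant CHO K1 co-expressing human EP3, Gα16 and the photoprotein Clytin, reconstituted with coelenterazine.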", "units": {"IC50": "nM"}, "values": [{"molecule": "Cc1ccc(-c2cn3nc(C(=O)NC4(c5ccc(F)cc5)CN(C)C4)cc3c(=O)[nH]2)cc1Cl", "note": "[6-123]", "IC50": 5.63}, {"molecule": "Cc1cc(-c2cn3nc(C(=O)NC4(c5ccc(F)cc5)CN(C5CC5)C4)c(C(F)(F)F)c3c(=O)[nH]2)ccc1Cl", "note": "[6-238]", "IC50": 1.4}, {"molecule": "Cc1c(C(=O)N[C@H](C)c2ccc(F)cc2)nn2cc(-c3ccc4ccccc4c3)[nH]c(=O)c12", "note": "[Example 1-45, N-[(1R)-1-(4-Fluorophenyl)ethyl]-3-methyl-6-(naphthalen-2-yl)-4-oxo-4,5-dihydropyrazolo[1,5-a]-pyrazine-2-carboxamide]", "IC50": 2.85}, {"molecule": "CC(CN1CCOCC1)NC(=O)c1nn2cc(-c3ccc4ccccc4c3)[nH]c(=O)c2c1C(F)(F)F", "note": "(single isomer, unassigned) [6-523]", "IC50": 10.9}, {"molecule": "Cc1cccc2ncc(-c3cn4nc(C(=O)NC(C)c5cccnc5)c(C(C)C)c4c(=O)[nH]3)cc12", "note": "(centres unmarked) [Example 4-70, 3-Isopropyl-6-(5-methyl-3-quinolyl)-4-oxo-N-[1-(3-pyridyl)ethyl]-5H-pyrazolo[1,5-a]pyrazine-2-carboxamide]", "IC50": 2.4}, {"molecule": "CC[C@@H](NC(=O)c1nn2cc(-c3cnc4cccc(C)c4c3)[nH]c(=O)c2c1C(C)C)c1ccccc1", "note": "[Example 4-49, 6-(5-Methylquinolin-3-yl)-4-oxo-N-[(1R)-1-phenylpropyl]-3-(propan-2-yl)-4,5-dihydropyrazolo[1,5-a]pyrazine-2-carboxamide]", "IC50": 3.95}, {"molecule": "COCc1c(C(=O)N[C@@H](c2ccc(F)cc2)C(F)(F)CO)nn2cc(-c3ccc(Cl)c(C)c3)[nH]c(=O)c12", "note": "[6-621]", "IC50": 1.15}, {"molecule": "Cc1ccc(-c2cn3nc(C(=O)N[C@H](C)C(C)C)c(C4CC4)c3c(=O)[nH]2)cc1Cl", "note": "[6-274]", "IC50": 1.3}, {"molecule": "C[C@@H](CO)NC(=O)c1nn2cc(-c3ccc(Cl)c(Cl)c3)[nH]c(=O)c2c1C1CC1", "note": "[6-414]", "IC50": 5.55}, {"molecule": "COC[C@H](NC(=O)c1nn2cc(-c3ccc(Cl)c(C)c3)[nH]c(=O)c2c1C1CC1)c1ccccc1", "note": "[6-304]", "IC50": 0.65}, {"molecule": "Cc1cc(-c2cn3nc(C(=O)NC4CC(F)(F)C4)c(C(F)(F)F)c3c(=O)[nH]2)ccc1Cl", "note": "[6-225]", "IC50": 7.4}, {"molecule": "Cc1cc(-c2cn3nc(C(=O)NC4(c5ccc(F)cc5)CN(C)C4)c(C(C)C)c3c(=O)[nH]2)ccc1Cl", "note": "[6-607]", "IC50": 2.95}, {"molecule": "Cc1cccc2ncc(-c3cn4nc(C(=O)NCC(N)=O)c(C(C)C)c4c(=O)[nH]3)cc12", "note": "[Example 4-31, N-(2-Amino-2-oxoethyl)-6-(5-methylquinolin-3-yl)-4-oxo-3-(propan-2-yl)-4,5-dihydropyrazolo[1,5-a]pyrazine-2-carboxamide]", "IC50": 7.4}, {"molecule": "CC(C)(C)CNC(=O)c1cc2c(=O)[nH]c(-c3ccc4ccccc4c3)cn2n1", "note": "[Example 2-11, N-(2,2-Dimethylpropyl)-6-(2-naphthyl)-4-oxo-4,5-dihydropyrazolo[1,5-a]pyrazine-2-carboxamide]", "IC50": 7.15}, {"molecule": "COC[C@@H](C)NC(=O)c1nn2cc(-c3ccc(C(F)(F)F)c(C)c3)[nH]c(=O)c2c1C1CC1", "note": "[6-136]", "IC50": 7.5}, {"molecule": "Cc1ccc(-c2cn3nc(C(=O)NCC(O)(C(F)(F)F)C(F)(F)F)c(C4CC4)c3c(=O)[nH]2)cc1F", "note": "[6-403]", "IC50": 0.69}, {"molecule": "O=C(NC(c1ccc(F)cc1)C1(O)CC1)c1nn2cc(-c3ccc(Cl)c(Cl)c3)[nH]c(=O)c2c1C1CC1", "note": "(racemic) [6-422]", "IC50": 0.7}, {"molecule": "O=C(NC(c1ccc(F)cc1)C1(O)CC1)c1nn2cc(-c3ccc(Cl)c(Cl)c3)[nH]c(=O)c2c1C1CC1", "note": "(single isomer, unassigned) [6-423]", "IC50": 0.62}, {"molecule": "COC[C@H](NC(=O)c1cc2c(=O)[nH]c(-c3ccc4c(c3)OCCO4)cn2n1)c1ccccc1", "note": "[6-46]", "IC50": 2.43}, {"molecule": "Cc1c(C(=O)NC2(c3ccc(F)cc3)CN(C)C2)nn2cc(-c3ccc4ccccc4c3)[nH]c(=O)c12", "note": "[Example 1-34, N-[3-(4-Fluorophenyl)-1-methylazetidin-3-yl]-3-methyl-6-(naphthalen-2-yl)-4-oxo-4,5-dihydropyrazolo[1,5-a]pyrazine-2-carboxamide formic acid salt]", "IC50": 4.18}, {"molecule": "C[C@H](NC(=O)c1cc2c(=O)[nH]c(-c3ccc4ccccc4c3)cn2n1)c1cccc2ccccc12", "note": "[Example 2-6]", "IC50": 8.75}, {"molecule": "CCCNC(=O)c1cc2c(=O)[nH]c(-c3ccc4cccc(F)c4c3)cn2n1", "note": "[6-40]", "IC50": 7.5}, {"molecule": "Cc1nn(C)c(C)c1C(C)NC(=O)c1cc2c(=O)[nH]c(-c3ccc4ccccc4c3)cn2n1", "note": "(centres unmarked) [Example 2-21, 6-(2-Naphthyl)-4-oxo-N-[1-(1,3,5-trimethyl-1H-pyrazol-4-yl)ethyl]-4,5-dihydropyrazolo[1,5-a]pyrazine-2-carboxamide]", "IC50": 4.45}, {"molecule": "Cc1ccc(-c2cn3nc(C(=O)NC(C)(C)C4CC4)c(C(F)(F)F)c3c(=O)[nH]2)cc1Cl", "note": "[6-191]", "IC50": 0.97}, {"molecule": "Cc1ccc(-c2cn3nc(C(=O)NC(CO)C(F)(F)F)c(C4CC4)c3c(=O)[nH]2)cc1C(F)(F)F", "note": "(single isomer, unassigned) [6-250]", "IC50": 6.3}, {"molecule": "Cc1ccc(-c2cn3nc(C(=O)N[C@@H](c4ccc(F)cc4)C(C)(C)O)c(C)c3c(=O)[nH]2)cc1F", "note": "[Example 1-162, 6-(3-Fluoro-4-methylphenyl)-N-[(1S)-1-(4-fluorophenyl)-2-hydroxy-2-methylpropyl]-3-methyl-4-oxo-4,5-dihydropyrazolo[1,5-a]pyrazine-2-carboxamide]", "IC50": 0.89}, {"molecule": "O=C(N[C@@H](c1ccc(F)cc1)C(F)(F)CO)c1nn2cc(-c3cccc(Cl)c3)[nH]c(=O)c2c1C1CC1", "note": "[6-678]", "IC50": 5.2}, {"molecule": "Cc1cc(-c2cn3nc(C(=O)NC4(c5ccc(F)cc5)CN(C5CC5)C4)c(C4CC4)c3c(=O)[nH]2)ccc1Cl", "note": "[6-345]", "IC50": 1.55}, {"molecule": "O=C(N[C@H](CN1CCOCC1)c1ccc(F)cc1)c1nn2cc(-c3ccc(Cl)c(F)c3)[nH]c(=O)c2c1C1CC1", "note": "[6-106]", "IC50": 0.61}, {"molecule": "CC(C)(O)[C@@H](NC(=O)c1nn2cc(-c3ccc4ccccc4c3)[nH]c(=O)c2c1C(F)(F)F)c1ccccc1", "note": "[Example 1-18, N-[(1S)-2-Hydroxy-2-methyl-1-phenylpropyl]-6-(naphthalen-2-yl)-4-oxo-3-(trifluoromethyl)-4,5-dihydropyrazolo[1,5-a]pyrazine-2-carboxamide]", "IC50": 1.04}, {"molecule": "COc1ccc([C@@H](C)NC(=O)c2nn3cc(-c4ccc(Cl)c(Cl)c4)[nH]c(=O)c3c2C2CC2)cn1", "note": "[6-426]", "IC50": 0.82}, {"molecule": "Cc1ccc(-c2cn3nc(C(=O)N[C@@H](C)CCO)c(C4CC4)c3c(=O)[nH]2)cc1Cl", "note": "[6-270]", "IC50": 2.67}, {"molecule": "Cc1ccc(-c2cn3nc(C(=O)N[C@@H](C)C4CC4)c(C4CC4)c3c(=O)[nH]2)cc1Cl", "note": "[6-254]", "IC50": 2.3}, {"molecule": "CCN(CCO)CC(NC(=O)c1nn2cc(-c3ccc4ccccc4c3)[nH]c(=O)c2c1C1CC1)c1ccccc1", "note": "(centres unmarked) [Example 1-26, 3-Cyclopropyl-N-[2-[ethyl(2-hydroxyethyl)amino]-1-phenylethyl]-6-(2-naphthyl)-4-oxo-5H-pyrazolo[1,5-a]pyrazine-2-carboxamide]", "IC50": 1.4}, {"molecule": "Cc1ccc(-c2cn3nc(C(=O)NC(c4ccc(F)cc4)C(F)(F)CO)cc3c(=O)[nH]2)cc1C", "note": "(racemic) [6-357]", "IC50": 1.95}, {"molecule": "CCCc1c(C(=O)N[C@H](C)c2ccc(F)cc2)nn2cc(-c3ccc(C)c(C)c3)[nH]c(=O)c12", "note": "[6-614]", "IC50": 0.82}, {"molecule": "Cc1ccc(-c2cn3nc(C(=O)N[C@H](CN4CC[C@H](F)C4)c4ccccc4)cc3c(=O)[nH]2)cc1F", "note": "[6-643]", "IC50": 1.95}, {"molecule": "Cc1ccc(-c2cn3nc(C(=O)NC(CN4CCOCC4)c4ccc(F)cc4)c(C4CC4)c3c(=O)[nH]2)cc1C", "note": "(racemic) [6-441]", "IC50": 1.45}, {"molecule": "COCc1c(C(=O)NC2(c3ccc(F)cc3)CN(C)C2)nn2cc(-c3ccc4c(c3)OCCO4)[nH]c(=O)c12", "note": "[6-628]", "IC50": 6.65}, {"molecule": "Cc1c(C(=O)N[C@H](C)c2ccc(F)cc2)nn2c(C)c(-c3ccc4ccccc4c3)[nH]c(=O)c12", "note": "[Example 1-23, N-[(1R)-1-(4-Fluorophenyl)ethyl]-3,7-dimethyl-6-(naphthalen-2-yl)-4-oxo-4,5-dihydropyrazolo-[1,5-a]pyrazine-2-carboxamide]", "IC50": 5.55}, {"molecule": "O=C(N[C@@H]1c2ccccc2C[C@@H]1O)c1cc2c(=O)[nH]c(-c3ccc4ccccc4c3)cn2n1", "note": "[6-74]", "IC50": 5.77}, {"molecule": "O=C(NCC1CCCCC1)c1cc2c(=O)[nH]c(-c3ccc4c(c3)OCCO4)cn2n1", "note": "[Example 1-43, N-(Cyclohexylmethyl)-6-(2,3-dihydro-1,4-benzodioxin-6-yl)-4-oxo-4,5-dihydropyrazolo[1,5-a]-pyrazine-2-carboxamide]", "IC50": 1.7}, {"molecule": "Cc1ccc(-c2cn3nc(C(=O)NC(c4ccc(F)cc4)C4(O)CC4)c(C4CC4)c3c(=O)[nH]2)cc1F", "note": "(single isomer, unassigned) [6-383]", "IC50": 1.6}, {"molecule": "Cc1cc(-c2cn3nc(C(=O)N[C@@H](c4ccc(F)cc4)[C@H](O)C(F)(F)F)c(C4CC4)c3c(=O)[nH]2)ccc1Cl", "note": "[6-315]", "IC50": 2}, {"molecule": "Cc1c(C(=O)NC(C)c2ccc3c(c2)OCCO3)nn2c(C)c(-c3ccc4ccccc4c3)[nH]c(=O)c12", "note": "(centres unmarked) [Example 3-31, N-[1-(2,3-Dihydro-1,4-benzodioxin-6-yl)ethyl]-3,7-dimethyl-6-(2-naphthyl)-4-oxo-5H-pyrazolo[1,5-a]pyrazine-2-carboxamide]", "IC50": 4.45}, {"molecule": "CC(NC(=O)c1cc2c(=O)[nH]c(-c3ccc4ccccc4c3)cn2n1)c1ccc(O)cc1", "note": "(single isomer, unassigned) [6-542]", "IC50": 10.5}, {"molecule": "Cc1ccc(-c2cn3nc(C(=O)N[C@@H](c4ccc(F)cc4)[C@H](O)C(F)(F)F)c(C4CC4)c3c(=O)[nH]2)cc1Cl", "note": "[6-272]", "IC50": 1.22}]}]}
